We go through three compounds from patent US20240246942A1, “KINASE INHIBITORS FOR THE TREATMENT OF NEURODEGENERATIVE DISEASES” (priority 2020, published 2024).

Assay in all cases: biochemical
Experiment [1] deals with T1, panel of 374 wild-type kinases (Homo sapiens, UniProt Q16288).
T1 construct: purchased Reaction Biology Corporation
As to conditions: for remaining activity at 5 µM: read-out: % Enzyme Activity (relative to DMSO controls), kinase TRKC.

In experiment [2] the target is T2, panel of 374 wild-type kinases (Homo sapiens, UniProt P29323).
T2 construct: purchased Reaction Biology Corporation
T2 sequence (P29323 19-1055): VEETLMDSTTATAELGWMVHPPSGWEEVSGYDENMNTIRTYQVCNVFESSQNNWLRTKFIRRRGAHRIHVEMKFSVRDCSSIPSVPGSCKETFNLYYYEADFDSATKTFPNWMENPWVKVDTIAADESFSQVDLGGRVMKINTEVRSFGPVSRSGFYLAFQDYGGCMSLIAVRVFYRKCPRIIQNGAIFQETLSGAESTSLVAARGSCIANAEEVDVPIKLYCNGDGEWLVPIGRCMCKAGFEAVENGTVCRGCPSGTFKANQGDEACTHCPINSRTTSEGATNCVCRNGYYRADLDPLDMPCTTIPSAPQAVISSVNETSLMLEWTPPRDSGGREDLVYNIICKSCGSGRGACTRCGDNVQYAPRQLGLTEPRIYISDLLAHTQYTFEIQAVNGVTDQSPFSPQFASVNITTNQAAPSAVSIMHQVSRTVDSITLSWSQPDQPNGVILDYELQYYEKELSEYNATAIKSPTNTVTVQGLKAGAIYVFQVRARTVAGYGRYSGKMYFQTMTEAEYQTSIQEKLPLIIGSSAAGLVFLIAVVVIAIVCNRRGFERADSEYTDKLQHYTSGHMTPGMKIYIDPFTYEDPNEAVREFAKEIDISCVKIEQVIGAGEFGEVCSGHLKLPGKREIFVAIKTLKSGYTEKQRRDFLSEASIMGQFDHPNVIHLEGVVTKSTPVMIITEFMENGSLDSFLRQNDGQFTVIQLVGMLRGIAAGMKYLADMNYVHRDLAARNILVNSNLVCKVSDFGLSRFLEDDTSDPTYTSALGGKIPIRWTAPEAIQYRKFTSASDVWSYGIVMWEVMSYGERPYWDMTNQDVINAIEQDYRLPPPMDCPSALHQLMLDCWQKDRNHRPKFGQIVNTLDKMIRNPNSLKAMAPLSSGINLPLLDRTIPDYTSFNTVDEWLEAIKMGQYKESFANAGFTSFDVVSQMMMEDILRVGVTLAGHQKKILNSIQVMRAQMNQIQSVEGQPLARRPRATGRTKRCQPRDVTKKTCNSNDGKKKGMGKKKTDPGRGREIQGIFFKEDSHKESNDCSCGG
To be noted: read-out: % Enzyme Activity (relative to DMSO controls), EPHB2.

Experiment [3] deals with T3, panel of 374 wild-type kinases (Homo sapiens, UniProt Q16832).
T3 construct: purchased Reaction Biology Corporation
T3 sequence (Q16832 22-855): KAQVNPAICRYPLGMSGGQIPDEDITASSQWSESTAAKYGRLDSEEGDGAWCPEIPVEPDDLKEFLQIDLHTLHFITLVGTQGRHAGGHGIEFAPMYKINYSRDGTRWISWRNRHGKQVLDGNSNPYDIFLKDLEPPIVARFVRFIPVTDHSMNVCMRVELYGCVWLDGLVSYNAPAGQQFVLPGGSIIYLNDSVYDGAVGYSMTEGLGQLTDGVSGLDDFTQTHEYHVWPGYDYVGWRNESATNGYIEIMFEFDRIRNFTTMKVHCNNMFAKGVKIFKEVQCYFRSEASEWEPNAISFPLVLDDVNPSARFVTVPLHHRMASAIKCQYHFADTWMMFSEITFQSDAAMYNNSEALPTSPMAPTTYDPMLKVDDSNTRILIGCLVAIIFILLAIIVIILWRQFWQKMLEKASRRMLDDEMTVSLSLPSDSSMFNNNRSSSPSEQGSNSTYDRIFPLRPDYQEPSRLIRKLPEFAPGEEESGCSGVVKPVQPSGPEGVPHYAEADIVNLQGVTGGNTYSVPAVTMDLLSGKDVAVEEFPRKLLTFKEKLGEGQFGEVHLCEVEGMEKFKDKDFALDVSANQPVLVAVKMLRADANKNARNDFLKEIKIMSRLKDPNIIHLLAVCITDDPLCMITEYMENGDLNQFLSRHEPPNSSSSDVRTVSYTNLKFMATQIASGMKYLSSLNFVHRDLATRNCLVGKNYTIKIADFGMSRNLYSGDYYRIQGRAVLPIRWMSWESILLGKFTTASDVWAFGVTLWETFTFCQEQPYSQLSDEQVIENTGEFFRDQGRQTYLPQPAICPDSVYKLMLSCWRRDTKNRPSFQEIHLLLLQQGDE
To be noted: read-out: % Enzyme Activity (relative to DMSO controls), DDR2.

Experiment [4] concerns the target T4, panel of 374 wild-type kinases (Homo sapiens, UniProt Q5S007).
T4 construct: purchased Reaction Biology Corporation
To be noted: read-out: % Enzyme Activity (relative to DMSO controls), LRRK2.

The target of experiment [5] is T5, panel of 374 wild-type kinases (Homo sapiens, UniProt Q96L34).
T5 construct: purchased Reaction Biology Corporation
T5 sequence (Q96L34 1-752): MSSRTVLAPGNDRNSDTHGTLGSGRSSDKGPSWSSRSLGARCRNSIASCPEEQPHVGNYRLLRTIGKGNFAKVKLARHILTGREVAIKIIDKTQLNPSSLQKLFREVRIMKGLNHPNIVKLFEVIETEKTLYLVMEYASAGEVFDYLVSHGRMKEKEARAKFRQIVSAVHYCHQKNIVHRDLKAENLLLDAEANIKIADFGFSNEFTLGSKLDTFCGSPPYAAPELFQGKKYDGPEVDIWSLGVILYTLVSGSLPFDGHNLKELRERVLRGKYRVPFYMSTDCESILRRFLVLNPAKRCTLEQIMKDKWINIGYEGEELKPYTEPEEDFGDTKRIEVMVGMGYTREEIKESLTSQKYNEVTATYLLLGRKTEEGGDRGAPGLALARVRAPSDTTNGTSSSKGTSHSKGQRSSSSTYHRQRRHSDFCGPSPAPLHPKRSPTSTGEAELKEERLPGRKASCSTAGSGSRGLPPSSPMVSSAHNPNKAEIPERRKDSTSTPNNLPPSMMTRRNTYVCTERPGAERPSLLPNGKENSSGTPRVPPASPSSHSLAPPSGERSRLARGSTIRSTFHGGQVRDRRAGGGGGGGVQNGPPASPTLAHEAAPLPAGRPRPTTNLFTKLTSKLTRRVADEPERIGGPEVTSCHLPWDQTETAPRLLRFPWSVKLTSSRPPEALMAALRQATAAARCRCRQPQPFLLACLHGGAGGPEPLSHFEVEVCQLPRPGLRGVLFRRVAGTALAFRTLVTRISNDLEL
As to conditions: read-out: % Enzyme Activity (relative to DMSO controls), MARK4.

Each structure is given as a SMILES string.

T1 sequence (Q16288 32-839): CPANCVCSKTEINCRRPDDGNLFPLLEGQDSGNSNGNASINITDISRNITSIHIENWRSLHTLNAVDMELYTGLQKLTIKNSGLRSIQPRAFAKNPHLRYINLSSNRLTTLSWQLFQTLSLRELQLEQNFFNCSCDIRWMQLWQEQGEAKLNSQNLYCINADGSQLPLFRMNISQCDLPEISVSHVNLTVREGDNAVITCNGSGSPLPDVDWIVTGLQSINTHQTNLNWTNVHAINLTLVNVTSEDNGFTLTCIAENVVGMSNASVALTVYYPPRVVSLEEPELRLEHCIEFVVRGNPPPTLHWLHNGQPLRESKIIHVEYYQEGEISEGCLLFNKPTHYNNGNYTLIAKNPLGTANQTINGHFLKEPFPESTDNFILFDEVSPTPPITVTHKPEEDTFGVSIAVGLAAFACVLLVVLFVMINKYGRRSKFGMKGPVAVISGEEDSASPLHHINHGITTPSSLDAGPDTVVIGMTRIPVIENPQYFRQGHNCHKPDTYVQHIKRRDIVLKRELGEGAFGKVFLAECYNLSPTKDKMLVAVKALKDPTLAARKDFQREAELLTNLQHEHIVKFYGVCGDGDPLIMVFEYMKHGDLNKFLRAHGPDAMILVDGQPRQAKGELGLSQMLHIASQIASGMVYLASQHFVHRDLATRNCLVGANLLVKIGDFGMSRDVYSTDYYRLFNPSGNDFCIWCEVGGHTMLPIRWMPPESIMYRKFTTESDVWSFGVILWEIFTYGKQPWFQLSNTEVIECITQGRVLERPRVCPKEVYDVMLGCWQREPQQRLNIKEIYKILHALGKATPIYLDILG
T4 sequence (Q5S007 whole entry): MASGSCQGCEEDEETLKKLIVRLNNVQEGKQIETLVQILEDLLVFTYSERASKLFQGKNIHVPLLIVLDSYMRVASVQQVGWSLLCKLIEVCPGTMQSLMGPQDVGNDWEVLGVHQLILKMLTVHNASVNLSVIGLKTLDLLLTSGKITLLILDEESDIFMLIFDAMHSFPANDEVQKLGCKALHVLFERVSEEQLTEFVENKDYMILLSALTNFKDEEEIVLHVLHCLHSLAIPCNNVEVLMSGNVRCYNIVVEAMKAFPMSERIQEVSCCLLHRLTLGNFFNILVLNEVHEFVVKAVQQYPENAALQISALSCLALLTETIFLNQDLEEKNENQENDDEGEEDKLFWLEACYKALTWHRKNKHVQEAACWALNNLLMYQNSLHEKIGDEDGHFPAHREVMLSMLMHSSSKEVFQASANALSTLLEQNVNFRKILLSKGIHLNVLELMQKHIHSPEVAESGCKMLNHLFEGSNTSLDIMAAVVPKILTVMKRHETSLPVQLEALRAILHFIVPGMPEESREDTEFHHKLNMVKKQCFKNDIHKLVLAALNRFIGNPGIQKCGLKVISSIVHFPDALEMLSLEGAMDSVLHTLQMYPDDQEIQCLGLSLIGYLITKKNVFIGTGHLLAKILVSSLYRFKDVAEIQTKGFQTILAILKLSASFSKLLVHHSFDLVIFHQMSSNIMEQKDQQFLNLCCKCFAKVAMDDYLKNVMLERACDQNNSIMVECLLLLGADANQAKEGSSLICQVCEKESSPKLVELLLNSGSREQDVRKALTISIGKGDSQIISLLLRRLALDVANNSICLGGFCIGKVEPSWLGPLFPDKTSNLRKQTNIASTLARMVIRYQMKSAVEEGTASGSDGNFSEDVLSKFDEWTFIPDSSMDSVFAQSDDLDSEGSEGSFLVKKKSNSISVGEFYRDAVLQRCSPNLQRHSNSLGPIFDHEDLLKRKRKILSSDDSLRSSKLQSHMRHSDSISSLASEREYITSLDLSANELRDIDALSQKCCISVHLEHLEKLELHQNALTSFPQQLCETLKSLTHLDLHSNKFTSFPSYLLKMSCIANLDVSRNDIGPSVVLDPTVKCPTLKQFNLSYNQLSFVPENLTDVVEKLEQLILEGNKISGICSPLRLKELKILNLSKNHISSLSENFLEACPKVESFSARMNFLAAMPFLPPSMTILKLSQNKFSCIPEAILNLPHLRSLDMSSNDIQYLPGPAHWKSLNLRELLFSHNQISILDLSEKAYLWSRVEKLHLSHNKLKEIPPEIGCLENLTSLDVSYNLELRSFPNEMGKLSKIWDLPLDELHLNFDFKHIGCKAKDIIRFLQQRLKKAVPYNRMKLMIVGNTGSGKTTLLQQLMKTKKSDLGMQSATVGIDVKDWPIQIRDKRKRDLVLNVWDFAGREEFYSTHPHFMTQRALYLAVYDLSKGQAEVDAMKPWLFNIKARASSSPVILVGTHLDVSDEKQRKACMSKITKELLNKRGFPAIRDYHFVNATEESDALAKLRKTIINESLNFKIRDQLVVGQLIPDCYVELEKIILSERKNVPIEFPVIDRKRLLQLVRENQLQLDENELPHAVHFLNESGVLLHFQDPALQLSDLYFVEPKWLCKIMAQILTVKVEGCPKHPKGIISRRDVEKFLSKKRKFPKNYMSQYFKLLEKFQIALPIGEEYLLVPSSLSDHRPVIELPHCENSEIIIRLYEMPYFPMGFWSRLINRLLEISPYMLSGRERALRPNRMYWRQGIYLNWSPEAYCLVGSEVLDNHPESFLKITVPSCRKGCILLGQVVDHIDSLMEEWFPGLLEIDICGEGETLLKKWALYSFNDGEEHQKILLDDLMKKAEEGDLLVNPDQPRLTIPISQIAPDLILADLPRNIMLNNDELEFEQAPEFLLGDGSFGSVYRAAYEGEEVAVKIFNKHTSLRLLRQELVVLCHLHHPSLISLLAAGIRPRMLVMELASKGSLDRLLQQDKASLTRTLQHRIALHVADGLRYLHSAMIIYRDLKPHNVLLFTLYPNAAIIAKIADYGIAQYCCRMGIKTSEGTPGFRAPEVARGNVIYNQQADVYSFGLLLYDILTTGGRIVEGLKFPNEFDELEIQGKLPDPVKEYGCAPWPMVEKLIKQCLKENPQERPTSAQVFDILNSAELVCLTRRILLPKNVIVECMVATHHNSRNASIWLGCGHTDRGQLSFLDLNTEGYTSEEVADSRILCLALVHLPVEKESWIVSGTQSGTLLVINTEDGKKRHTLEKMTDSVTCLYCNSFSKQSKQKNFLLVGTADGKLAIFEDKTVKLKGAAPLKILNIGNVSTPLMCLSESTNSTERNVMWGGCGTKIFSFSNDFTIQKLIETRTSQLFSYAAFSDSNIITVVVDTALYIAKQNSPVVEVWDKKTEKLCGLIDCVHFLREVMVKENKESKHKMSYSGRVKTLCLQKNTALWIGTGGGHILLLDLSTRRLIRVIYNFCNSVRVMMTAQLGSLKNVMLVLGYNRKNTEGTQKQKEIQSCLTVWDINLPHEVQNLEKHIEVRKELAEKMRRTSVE

Consider `O=C(Nc1cnn(-c2csc(C(=O)NC3COC3)c2)c1)Nc1ccccc1Cl` [Compound 17, 4-(4-(3-(2-chlorophenyl)ureido)-1H-pyrazol-1-yl)-N-(oxetan-3-yl)thiophene-2-carboxamide], for which the remaining activity at 5 µM in experiment [1] was found to be 64.3%; in experiment [2], 101%; in experiment [3] it was 99.8%; in experiment [4], 88.2%; in experiment [5], 108%.

As to `O=C(Nc1cnn(-c2csc(C(=O)NC3COC3)c2)c1)Nc1c(F)cccc1Cl` [Compound 25, 4-(4-(3-(2-chloro-6-fluorophenyl)ureido)-1H-pyrazol-1-yl)-N-(oxetan-3-yl)thiophene-2-carboxamide], the remaining activity at 5 µM in experiment [1] stood at 38.6%; in experiment [2], 99.9%; in experiment [3] it was 96.6%; in experiment [4] it was 91.3%; in experiment [5], 97.9%.

`Cc1sc(C(=O)NC2COC2)cc1-n1cc(NC(=O)Nc2c(F)cccc2Cl)cn1` [Compound 27, 4-(4-(3-(2-chloro-6-fluorophenyl)ureido)-1H-pyrazol-1-yl)-5-methyl-N-(oxetan-3-yl)thiophene-2-carboxamide]: the remaining activity at 10 µM in experiment [1] (kinase TRKC, 10 uM, read-out: % Enzyme Activity (relative to DMSO controls)) is 86%; in experiment [2] (10 uM) it was 109%; in experiment [3] (10 uM), 111%; in experiment [4] (10 uM) it was 101%; in experiment [5] (10 uM), 108%.
